Experiments:
[1] = tested on: H9 cells, a human T-cell line; assay: Vitamin C absorption (uptake) in H9 cells; format: cell-based; details: 50 μM
Experimental: The rate of vitamin C absorption in H9 cells, a human T-cell line, was determined for the formulation of Example 1 and other vitamin C formulations.
At the times indicated in FIG. 1, cells were harvested and measured for vitamin C and protein content. The cellular vitamin C levels of the cells were measured using the 2,4-dinitrophenylhydrazine spectrophotometric technique (Bessey et al., 1947).

[2] = tested on: human T-lymphoblastic H9 cell line; assay: Inhibition of PHA- or bifenthrin-induced homotypic T-lymphocyte aggregation; format: cell-based; details: H9 cells, 0.5 μM vitamin C form, 30 minutes at 37° C.; for homotypic aggregation (aggregate size), activator: None: no activator
Experimental: The ability to inhibit pesticide-induced T-lymphocyte aggregation was determined for the formulation of Example 1 and other vitamin C formulations.
The human T-lymphoblastic H9 cell line was incubated with vehicle (-) or with one of two activators of T-lymphocyte aggregation, phytohemagglutinin (PHA; […]) or bifenthrin ([…]). […] After treatment, the ability of each formulation to inhibit homotypic aggregation was measured by counting aggregate size at 400× magnification.

[3] = tested on: Plasma C-Reactive Protein; assay: Human plasma C-reactive protein after single oral dose; format: in vivo; details: for Plasma C-Reactive Protein Change: 0 vs 24 hrs
Experimental: (§1) The human serum vitamin C, plasma C-reactive protein, oxidized LDL, and urine uric and oxalate levels were determined for the formulation of Example 1 and other vitamin C formulations.
(§2) Healthy volunteers maintained a low vitamin C diet for 14 days. […] Blood samples were collected immediately prior to the oral dose administration and at various time points post ingestion. Urine was collected over a 24-hour time period and saved for oxalate and uric acid assays. Serum vitamin C levels were measured by HPLC with coulometric electrochemical detection. Plasma C-reactive protein and oxidized LDL were measured by enzyme linked immunosorbent assay (ELISA) and urine uric acid and oxalate levels were measured by enzymatic methods.

[4] = tested on: Plasma OxLDL; assay: Human plasma oxidized LDL after single oral dose; format: in vivo; details: for Plasma OxLDL Change: 0 vs 24 hrs
Experimental: as §1, §2

[5] = Human serum vitamin C levels after single oral dose; format: in vivo
Experimental: as §1, §2

[6] = Human urine uric acid after single oral dose; format: in vivo; details: single oral dose 1000 mg, urine collected over 24 hours
Experimental: as §1, §2

[7] = Human urine oxalate after single oral dose; format: in vivo; details: single oral dose 1000 mg, urine collected over 24 hours
Experimental: as §1, §2

[8] = 0 hrs (immediately prior to oral dose)
[9] = single oral dose 1000 mg, 24 hrs

Compound | cellular vitamin C levels (peak) ([1]; at approximately two hours) [nmol/mg protein] | cellular vitamin C levels ([1]; at fifteen minutes) [nmol/mg protein] | homotypic aggregation (aggregate size), activator: PHA [2] | homotypic aggregation (aggregate size), activator: Bifenthrin [2] | homotypic aggregation (aggregate size), activator: None [2] | Plasma C-Reactive Protein [3, 8] [ng/mL] | Plasma C-Reactive Protein Change [3] [ng/mL] | Plasma C-Reactive Protein [3, 9] [ng/mL] | Plasma OxLDL Change [4] [U/ml] | Serum Vitamin C Levels ([5]; 0 hrs (immediately prior to single oral dose of 1000 mg)) [mg/dL] | Serum Vitamin C Levels ([5]; single oral dose 1000 mg, 1 hr post-admin) [mg/dL] | Serum Vitamin C Levels ([5]; single oral dose 1000 mg, 2 hrs post-admin) [mg/dL] | Serum Vitamin C Levels ([5]; single oral dose 1000 mg, 4 hrs post-admin) [mg/dL] | Serum Vitamin C Levels ([5]; single oral dose 1000 mg, 6 hrs post-admin) [mg/dL] | Serum Vitamin C Levels ([5]; single oral dose 1000 mg, 24 hrs post-admin) [mg/dL] | Plasma OxLDL [4, 8] [U/ml] | Plasma OxLDL [4, 9] [U/ml] | Urine Markers: Uric Acid [6] [mg/dL] | Urine Markers: Oxalate [7] [mg/dL]
O=C1O[C@H]([C@@H](O)CO)C(O)=C1O [AA, ascorbic acid] | 31 | 7±1.4 | 75 ± 12 | 130 ± 5 | 9 ± 4 | 129.75 ± 26 | 12.75 | 117.00 ± 33 | 0.89 |  |  |  |  |  |  |  |  |  | 
calcium ascorbate [CaA] |  |  | 110 ± 10 | 137 ± 8 | 12 ± 4 | 189.17 ± 41 | 8.34 | 180.83 ± 43 | 3.78 | 0.50 ± 0.05 | 0.88 ± 0.10 | 1.12 ± 0.17 | 1.03 ± 0.13 | 1.0 ± 0.13 | 0.59 ± 0.09 | 60.56 ± 5 | 57.67 ± 6 | 39.75 ± 10.5 | 17.8 ± 2.6

— patent US20080207748A1, “VITAMIN C PREPARATION” (INNOVATION LABS, INC., priority 2007, published 2008)
